Read-outs that look alike come from different tables or passages of the source. Bounds are passed on as bounds.

The subject of data set [1] is murine embryonic fibroblasts (MEFs). As to the kind of experiment: β-Lactamase protein transduction assay (CCF2-AM), protocol 3/700. The settings on record: for protein transducing activity of hypertonicity-inducing compound: tonicity adjusted to 700 mOsm/Kg with the compound, 25 mM NDSB201 and osmoprotectants; for effect of endocytic pathway inhibitor on protein transduction / enhancement of protein transduction by GABA agonist: 1 μM β-lactamase; for enhancement of protein transduction by GABA agonist: 25 mM NDSB201 plus GABA agonist, NDSB201 alone = 100%; for protein transduction activity (in words): 25 mM compound, compared with NDSB201 (#01) or parent compound; for effect of growth factor or peptide on β-lactamase transduction of MEFs: 25 mM NDSB201, 30 mM Glycerol, 15 mM Glycine. An excerpt:
To further characterize the protein transduction process we analyzed the effect of time, osmolality, transduction compound concentration and protein concentration on the transduction process. To this end, we set up a β-Lactamase protein transduction assay and measured intracellular β-Lactamase activity using CCF2-AM, an intracellular fluorescent β-Lactamase substrate that changes emission wavelength when cleaved by the enzyme (FIG. 3A). […] While we used the immortalized COS7 cell line in our initial studies, we wanted to know if the compound-mediated protein transduction would also allow the transduction of protein into primary cells. We therefore transduced murine embryonic fibroblasts (MEFs) with β-Lactamase (1 μM final concentration), using NaCl-adjusted hypertonic media (700 mOsm/Kg) and 25 mM NDSB201. β-Lactamase activity was set at 1 at the start of the experiment and relative intracellular β-Lactamase activity was measured as a function of time (FIG. 3B, bars). As a control, β-Lactamase transduction was measured in isotonic media in the presence of 25 mM NSDB201 (FIG. 3B, open circles).
β-lactamase transduction was performed using the 3/700 protocol above in murine embryonic fibroblasts (MEFs). A black, clear-bottom 96 well-plate was coated with 0.15 mg/ml of Poly-D-Lysine for 1 h at room temperature. 12,000 MEFs cells were seeded per well in MEF media without antibiotics. Next day, cells were transduced using the transduction protocol 3/700 as describe above. […] Na- or Rb-salt was added to adjust the final tonicity to 700 mOsm/Kg. […] After 3 hrs., the transduction media was replaced by fresh MEF media for 30 min. Subsequently, cells were washed once with phenol-red-free DMEM. β-lactamase activity was measured using the CCF2-AM kit following the manufacturer's instructions. In brief, 120 μl of CCF2-AM loading media was added per well and cells were incubated for 1 h at room temperature. Cells were washed two times with DMEM phenol-red free and incubated for an additional 30-60 min. Fluorescence emission was measured at […] and 510 nm following manufacturer's instructions. All tests were done in triplicate.

Another data set relates to COS7 cells. As to the kind of experiment: Oct4 luciferase reporter (6×OCT4-TK-Luc) protein transduction assay. Format: cell-based.
Data set [2] concerns MEFs cells expressing GAL3-GFP protein. Nature of the data set: GAL3-GFP macropinosome vesicle leakage reporter assay. To be noted: 700/3 conditions.
Procedure: Schematic representation of the GAL3-GFP reporter assay. Upon initiation of transduction, extracellularly applied protein is taken up into macropinosomes (grey vesicles). […] At the same time, the compromised macropinosome membrane now allows entry of cytosolic GAL3-GFP protein, which binds to—and accumulates at the intra-macropinosome carbohydrates resulting in a bright fluorescent signal (white vesicles). […] GAL3-GFP cells were incubated with transduction media at 700 mOsmol/Kg with or without the macropinocytosis inhibitor EIPA. Untreated cells were included as negative control.
For transduction to occur, proteins that have been taken by macropinocytosis have to be released into the cytosol. […] To test the efficacy of potential transduction compound candidates, we set up an assay to monitor macropinosome vesicle permeation. […] We set up a reporter system in which Galectin-3 protein is fused to GFP (GAL3-GFP). Cytosolic GAL3-GFP protein relocalises to the interior of permeabilized macropinosomes, whereby a multimer complex is formed with intense green fluorescent emission. MEFs cells expressing GAL3-GFP protein were transduced using the 700/3 conditions.
Data set [3] deals with murine embryonic fibroblasts (MEFs). As to the kind of experiment: BrdU incorporation (cell proliferation) after transduction of MEFs. The settings on record: BrdU 24 hrs after start of transduction, 25 mM compound, 700 mOsm/Kg.
Procedure: Open circles indicate relative BrdU incorporation by the transduced cells. BrdU incorporation of untransduced cells was set at 100% and BrdU incorporation of mitomycin C-treated cells was set at 0%.
Cell proliferation was determined using the Cell Proliferation Elisa kit, Brdu (Roche) following manufacturer's instructions (Roche).
Setting [4] is: 3 hours, 700 mOsm/Kg NaCl, 25 mM NDSB201.
[5] abbreviates: 3 hours, 25 mM NDSB201, tonicity adjusted with NaCl.

As to `OC[C@H]1O[C@@H](O[C@@H]2[C@@H](CO)OC(O)(CO)[C@H]2O)[C@H](O)[C@@H](O)[C@H]1O` (mixture of isomers) [Lactulose], the “protein transducing activity of hypertonicity-inducing compound” value (“protein transducing activity” below) in data set [1] (3 hours) was “failed to induce protein transduction”.

In the case of `CN(C)CCCN1c2ccccc2Sc2ccc(Cl)cc21` [Chlorpromazine, reference compound], in data set [1] (setting [4]), the “effect of endocytic pathway inhibitor on protein transduction” value (from here on “effect of endocytic pathway inhibitor”) was “ineffective in inhibiting protein transduction”.

As for `[Cl-].[Cs+]` [CsCl, caesium chloride], the “protein transducing activity” value in data set [1] (3 hours) is recorded as “had protein transducing activity”.

For `C=C1[C@@H](C)[C@H]2[C@H](Cc3ccccc3)NC(=O)[C@]23[C@H](OC(C)=O)/C=C/[C@@](C)(O)C(=O)[C@@H](C)C/C=C/[C@H]3[C@@H]1O` [Cytochalasin D, reference compound], in data set [1] (setting [4]), the “effect of endocytic pathway inhibitor” value is recorded as “completely blocked protein transduction”.

In the case of `CN(C)c1nc(N)c(C(=O)N=C(N)N)nc1Cl.Cl` [DMA, 5-(N,N-dimethyl) amiloride hydrochloride, reference compound], the “effect of endocytic pathway inhibitor” value in data set [1] (setting [4]) was “strongly inhibited”.

Regarding `O=C(N/N=C/c1ccc(O)c(O)c1)c1cc2ccccc2cc1O` [Dynasore, reference compound], the “effect of endocytic pathway inhibitor” value in data set [1] (setting [4]) was “ineffective in inhibiting protein transduction”.

`[Cl-].[K+]` [KCl, potassium chloride]: in data set [1] (3 hours), the “protein transducing activity” value was “had protein transducing activity”.

With `C/C1=C/C(=O)O[C@@H]2C[C@@H](CC[C@H](C)/C=C\C=C\CC1)O[C@@](O)([C@@H]1CSC(=O)N1)C2` [Latrunculin A, reference compound], the “effect of endocytic pathway inhibitor” value in data set [1] (setting [4]) was “completely blocked protein transduction”.

For the molecule `[Cl-].[Li+]` [LiCl, lithium chloride], in data set [1] (3 hours), the “protein transducing activity” value is listed as “had protein transducing activity”.

Take `OC[C@@H](O)[C@@H](O)[C@H](O)[C@H](O)CO` [Manitol]: the “protein transducing activity” value in data set [1] (3 hours) is “failed to induce protein transduction”.

In the case of `NCc1cc(=O)[nH]o1` [Muscimol, reference compound], in data set [1] (3 hours, 700 mOsm/Kg), the “enhancement of protein transduction by GABA agonist” value is on record as “approximately 300%”.

For `[Cl-].[Na+]` [NaCl, Sodium chloride], in data set [1] (setting [5]), the “osmolality beyond which cell loss was observed” value is greater than 850 mOsm/Kg and the “osmolality of maximal β-Lactamase transduction” value is 700-800 mOsm/Kg. Also, the “protein transducing activity” value in data set [1] (3 hours) was “the highest activity”. In addition, the “effect of omitting buffer component on Oct4-reporter activation by Oct4-VP16 protein” value in the data set on COS7 cells is “abrogated Oct4-reporter activation”.

`C[C@@H]1[C@H](O)[C@@H](C)/C=C/C=C/CC/C=C/C=C/C=C/C=C/C(O[C@H]2O[C@H](C)[C@@H](O)[C@H](N)[C@@H]2O)CC2O[C@](O)(CC(O)C(O)CCC(O)CC(O)CC(O)CC(=O)O[C@H]1C)CC(O)C2C(=O)O` (some centres unmarked) [Nystatin, reference compound]: the “effect of endocytic pathway inhibitor” value in data set [1] (setting [4]) was “ineffective in inhibiting protein transduction”.

In the case of `O=C1NC(=NS(=O)(=O)c2cccc3ccccc23)S/C1=C\c1ccc(Br)cc1` [Pitstop2, reference compound], in data set [1] (setting [4]), the “effect of endocytic pathway inhibitor” value is on record as “ineffective in inhibiting protein transduction”.

With `[Cl-].[Rb+]` [RbCl, rubidium chloride], the “protein transducing activity” value in data set [1] (3 hours) is “the highest activity”.

Regarding `CP(=O)(O)CCCN` [SKF-97541, reference compound], the “enhancement of protein transduction by GABA agonist” value in data set [1] (3 hours, 700 mOsm/Kg) is given as “approximately 300%”.

As to `O=C([O-])[C@H](O)[C@@H](O)[C@H](O)[C@H](O)CO.[Na+]` [Sodium Gluconate], the “protein transducing activity” value in data set [1] (3 hours) is “efficiency similar to NaCl and RbCl”.

For `OC[C@@H](O)[C@@H](O)[C@H](O)[C@@H](O)CO` [Sorbitol], the “protein transducing activity” value in data set [1] (3 hours) is given as “failed to induce protein transduction”.

On to `OC[C@H]1O[C@@](CO)(O[C@H]2O[C@H](CO)[C@@H](O)[C@H](O)[C@H]2O)[C@@H](O)[C@@H]1O` [Sucrose], for which, in data set [1] (3 hours), the “protein transducing activity” value is reported as “failed to induce protein transduction”.

As to `O=S(=O)([O-])CCC[n+]1ccccc1` [compound 1, 3-(1-pyridino)-1-propanesulfonate, reference compound], in data set [1] (1 μM β-Lactamase, 700 mOsm/Kg NaCl, 25 mM NDSB201), the “time after initiation of transduction at which intracellular β-Lactamase activity could be observed” value was 2.5 h. Moreover, the “effect of higher compound concentrations under hyperosmotic conditions” value in data set [1] (700 mOsm/kg, above 10-25 mM) is reported as “cell loss”. Also, the “protein transduction activity (in words)” value in data set [1] (3 hours, 700 mOsm/Kg) is on record as “most efficient”. For the same molecule, in data set [1] (3 hours, 700 mOsm/kg NaCl, 1 μM β-Lactamase), the “transduction compound concentration at peak β-Lactamase transduction” value was in the range of 10 to 25 mM. Also, in the data set on COS7 cells (COS7 cells), the “effect of omitting buffer component on Oct4-reporter activation by Oct4-VP16 protein” value is “abrogated Oct4-reporter activation”. Further, the “Gal3-GFP localisation to macropinocytic vesicles (vesicle leakage)” value in data set [2] was “bright vesicle formation”.

For `C[N+]1(CCCS(=O)(=O)[O-])CCCCC1` [compound 03, 3-(1-methylpiperidine)-1-propanesulfonate, reference compound], the “protein transduction activity (in words)” value in data set [1] (3 hours, 700 mOsm/Kg) is “most efficient”.

In the case of `CCC(C)(C)CCCS(=O)(=O)O` [compound 07], in data set [1] (3 hours, 700 mOsm/Kg), the “protein transduction activity (in words)” value is “greatly diminished transduction activity”. Further, the “effect on cell proliferation / viability (BrdU incorporation, in words)” value (from here on “effect on cell proliferation / viability”) in data set [3] is on record as “severe cell cycle inhibition”.

With `NCC(=O)O` [compound 18, Glycine], in data set [1] (3 hours, 700 mOsm/Kg), the “protein transduction activity (in words)” value is on record as “little to no transduction activity”. The “β-lactamase transduction activity when combined with reference compound #01 (reference set at 100%)” value in data set [1] (equimolar with NDSB201 (#01), 12.5 mM each, total 25 mM, 3 hours, 700 mOsm/Kg) is “approximately 15%”. In data set [2], the “Gal3-GFP localisation to macropinocytic vesicles (vesicle leakage)” value is “did not localize into the macropinocytic vesicles”.

Consider `CCCCC(=O)O` [compound 23, pentanoic acid], for which, in data set [1] (3 hours, 700 mOsm/Kg), the “protein transduction activity (in words)” value is on record as “greatly diminished transduction activity”. For the same molecule, the “effect on cell proliferation / viability” value in data set [3] is on record as “severe cell cycle inhibition”.

Regarding `CCCCN` [compound 24, n-butylamine], the “protein transduction activity (in words)” value in data set [1] (3 hours, 700 mOsm/Kg) was “greatly diminished transduction activity”. In addition, the “effect on cell proliferation / viability” value in data set [3] is listed as “severe cell cycle inhibition”.

For EGF: epidermal growth factor, the “effect of growth factor or peptide on β-lactamase transduction of MEFs” value (shortened to “effect of growth factor or peptide”) in data set [1] (3 hours, 700 mOsm/Kg) was “doubling of β-lactamase uptake”.

Consider Insulin: Insulin, for which the “effect of growth factor or peptide” value in data set [1] (3 hours, 700 mOsm/Kg) is reported as “small, but significant stimulatory effect”.

Consider PDGF, for which the “effect of growth factor or peptide” value in data set [1] (3 hours, 700 mOsm/Kg) was “doubling of β-lactamase uptake”.
